Test results reported in ChEMBL document CHEMBL1201862, “PubChem BioAssay data set” (2004).
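Each compound was tested at five concentrations against cells in 96-well plates for 48 hours. The concentration for 50% growth inhibition is given as GI50.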 Active and inactive are the calls of the source. No stated cut-off is given here; in the data, active = GI50 up to about 1.1 µM and inactive = higher.

Columns and labels:
Test in all cases: inhibition of tumour cell growth, NCI panel, 48 h
[1] = system: EKVX
[2] = system: M14
[3] = system: CCRF-CEM
[4] = system: SF-268
[5] = system: MDA-MB-435
[6] = system: UO-31
[7] = system: OVCAR-8
[8] = system: CAKI-1
[9] = system: SW-620
[10] = system: PC-3
[11] = system: A498
[12] = system: K562
[13] = system: NCI-H460
[14] = system: ACHN
[15] = system: 786-0
[16] = system: NCI/ADR-RES
[17] = system: SF-295
[18] = system: SN12C
[19] = system: MCF7
[20] = system: NCI-H23
[21] = system: HCT-116
[22] = system: COLO 205
[23] = system: T47D
[24] = system: RXF 393
[25] = system: HL-60
[26] = system: U-251
[27] = system: SK-MEL-5
[28] = system: TK-10
[29] = system: SF-539
[30] = system: HT-29
[31] = system: MDA-N
[32] = system: MOLT-4
[33] = system: OVCAR-4
[34] = system: HCC 2998
[35] = system: BT-549
[36] = system: UACC-257
[37] = system: HOP-92
[38] = system: NCI-H226
[39] = system: Malme-3M
[40] = system: SK-OV-3
[41] = system: SNB-19
[42] = system: OVCAR-3
[43] = system: Hs-578T
[44] = system: SK-MEL-28
[45] = system: A549
[46] = system: SR
[47] = system: UACC-62
[48] = system: RPMI-8226
[49] = system: IGROV-1
[50] = system: HOP-62
[51] = system: KM12
[52] = system: HCT-15
[53] = system: NCI-H522
[54] = system: OVCAR-5
[55] = system: MDA-MB-231
[56] = system: DU-145
[57] = system: LOX IMVI
[58] = system: SK-MEL-2
[59] = system: SNB-75

## COc1ccc(-c2cc3cc(Cl)cc(Cl)c3oc2=O)cc1OC
[1]
  GI50: 92.9 µM (inactive)
[2]
  GI50: 60.3 µM (inactive)
[3]
  GI50: > 100 µM (inactive)
[4]
  GI50: 43.6 µM (inactive)
[5]
  GI50: 65 µM (inactive)
[6]
  GI50: 58.7 µM (inactive)
[7]
  GI50: 65.8 µM (inactive)
[8]
  GI50: > 100 µM (inactive)
[9]
  GI50: > 100 µM (inactive)
[10]
  GI50: 46.9 µM (inactive)
[11]
  GI50: 79.1 µM (inactive)
[12]
  GI50: 33.3 µM (inactive)
[13]
  GI50: 36.7 µM (inactive)
[14]
  GI50: 37.7 µM (inactive)
[15]
  GI50: 35.3 µM (inactive)
[16]
  GI50: 56.9 µM (inactive)
[17]
  GI50: 48.5 µM (inactive)
[18]
  GI50: 39.8 µM (inactive)
[19]
  GI50: 59.3 µM (inactive)
[20]
  GI50: 36.5 µM (inactive)
[21]
  GI50: 31.6 µM (inactive)
[22]
  GI50: > 100 µM (inactive)
[23]
  GI50: 46.8 µM (inactive)
[24]
  GI50: 19.4 µM (inactive)
[25]
  GI50: > 100 µM (inactive)
[26]
  GI50: 37.2 µM (inactive)
[27]
  GI50: 28.8 µM (inactive)
[28]
  GI50: 44.9 µM (inactive)
[29]
  GI50: 81.7 µM (inactive)
[30]
  GI50: 55.2 µM (inactive)
[31]
  GI50: 94 µM (inactive)
[32]
  GI50: > 100 µM (inactive)
[33]
  GI50: 32.8 µM (inactive)
[34]
  GI50: 44.7 µM (inactive)
[35]
  GI50: 57.3 µM (inactive)
[36]
  GI50: 51.1 µM (inactive)
[37]
  GI50: 46.6 µM (inactive)
[38]
  GI50: 43.9 µM (inactive)
[39]
  GI50: 59.8 µM (inactive)
[40]
  GI50: 74.8 µM (inactive)
[41]
  GI50: 28.2 µM (inactive)
[42]
  GI50: 29.4 µM (inactive)
[43]
  GI50: 31.4 µM (inactive)
[44]
  GI50: 94.2 µM (inactive)
[45]
  GI50: 92.3 µM (inactive)
[46]
  GI50: 82 µM (inactive)
[47]
  GI50: 63.2 µM (inactive)
[48]
  GI50: 63.5 µM (inactive)
[49]
  GI50: 51.8 µM (inactive)
[50]
  GI50: 40 µM (inactive)
[51]
  GI50: 31.6 µM (inactive)
[52]
  GI50: 48.8 µM
[53]
  GI50: 36.1 µM (inactive)
[54]
  GI50: > 100 µM (inactive)
[55]
  GI50: 62.7 µM (inactive)
[56]
  GI50: > 100 µM (inactive)
[57]
  GI50: > 100 µM (inactive)
[58]
  GI50: > 100 µM (inactive)

## O=C(Oc1ccc2c(c1)CN(Cc1ccccc1)CO2)c1ccccc1
[1]
  GI50: 16.7 µM (inactive)
[2]
  GI50: 18 µM (inactive)
[3]
  GI50: 10.6 µM (inactive)
[4]
  GI50: 17.3 µM (inactive)
[5]
  GI50: 21.8 µM (inactive)
[6]
  GI50: 17.7 µM (inactive)
[7]
  GI50: 16.7 µM (inactive)
[8]
  GI50: 20 µM (inactive)
[9]
  GI50: 22.8 µM (inactive)
[10]
  GI50: 15.9 µM (inactive)
[11]
  GI50: 17.3 µM (inactive)
[12]
  GI50: 17.6 µM (inactive)
[13]
  GI50: 18.7 µM (inactive)
[14]
  GI50: 18.8 µM (inactive)
[15]
  GI50: 16.9 µM (inactive)
[16]
  GI50: 23.4 µM (inactive)
[17]
  GI50: 17.8 µM (inactive)
[18]
  GI50: 17.1 µM (inactive)
[19]
  GI50: 16.9 µM (inactive)
[20]
  GI50: 15.8 µM (inactive)
[21]
  GI50: 16 µM (inactive)
[22]
  GI50: 16.9 µM (inactive)
[23]
  GI50: 21.7 µM (inactive)
[24]
  GI50: 15.2 µM (inactive)
[26]
  GI50: 17.3 µM (inactive)
[27]
  GI50: 17.1 µM (inactive)
[28]
  GI50: 16.2 µM (inactive)
[29]
  GI50: 17.3 µM (inactive)
[30]
  GI50: 18.5 µM (inactive)
[31]
  GI50: 16.8 µM (inactive)
[32]
  GI50: 10.7 µM (inactive)
[33]
  GI50: 15.7 µM (inactive)
[59]
  GI50: 17.1 µM (inactive)
[34]
  GI50: 14.5 µM (inactive)
[35]
  GI50: 18.5 µM (inactive)
[36]
  GI50: 15.1 µM (inactive)
[37]
  GI50: 12.7 µM (inactive)
[39]
  GI50: 18.9 µM (inactive)
[40]
  GI50: 16.6 µM (inactive)
[41]
  GI50: 18.7 µM (inactive)
[42]
  GI50: 15.4 µM (inactive)
[43]
  GI50: 23.7 µM (inactive)
[44]
  GI50: 21.4 µM (inactive)
[45]
  GI50: 19.8 µM (inactive)
[46]
  GI50: 18.2 µM (inactive)
[47]
  GI50: 16.8 µM (inactive)
[48]
  GI50: 20.6 µM (inactive)
[49]
  GI50: 13.3 µM (inactive)
[50]
  GI50: 18.4 µM (inactive)
[51]
  GI50: 20.7 µM (inactive)
[52]
  GI50: 16.9 µM
[53]
  GI50: 7.06 µM (inactive)
[54]
  GI50: 18.3 µM (inactive)
[55]
  GI50: 19.2 µM (inactive)
[56]
  GI50: 17.9 µM (inactive)
[57]
  GI50: 17.1 µM (inactive)
[58]
  GI50: 22 µM (inactive)
